Results: BindingDB's records for doi:10.1016/j.ejmech.2019.112028 (Hunan Agricultural University, 2020)

Experiments:
[1] = Potentiation of amphotericin-induced cytotoxicity against human DU-145 cells over expressing CYP1B1 assessed as reversal of CYP1B1 mediated drug resistance at 1 uM after 48 hrs by MTT assay (Rvb = 43.25 +/- 1.7 nM)
[2] = Potentiation of amphotericin-induced cytotoxicity against human DU-145 cells over expressing CYP1B1 assessed as reversal of CYP1B1 mediated drug resistance at 5 uM after 48 hrs by MTT assay (Rvb = 43.25 +/- 1.7 nM)

Row | SMILES | IC50 [1] | IC50 [2]
1 | COc1ccc(OC)c2c1c(OC)cc1c(=O)cc(-c3ccc(-c4cn(CCCCCOc5cccc6c5C(=O)N(C5CCC(=O)NC5=O)C6=O)nn4)cc3)oc12 (centres undefined) | 28 nM | 
2 | COc1ccc(OC)c2c1c(OC)cc1c(=O)cc(-c3ccc(-c4cn(CCCCCCOc5cccc6c5C(=O)N(C5CCC(=O)NC5=O)C6=O)nn4)cc3)oc12 (centres undefined) |  | 7 nM
3 | COc1ccc(OC)c2c1c(OC)cc1c(=O)cc(-c3ccc(-c4cn(CCOc5cccc6c5C(=O)N(C5CCC(=O)NC5=O)C6=O)nn4)cc3)oc12 (centres undefined) |  | 24 nM
4 | COc1ccc(OC)c2c1c(OC)cc1c(=O)cc(-c3ccc(-c4cn(CCCCCCCCOc5cccc6c5C(=O)N(C5CCC(=O)NC5=O)C6=O)nn4)cc3)oc12 (centres undefined) |  | 37 nM
